From ChEMBL document CHEMBL3045508, “Pharmacological Characteristics of Insect Nicotinic Acetyicholine Receptor with Its Ion Channel and the Comparison of the Effect of Nicotinoids and Neonicotinoids” (J Pestic Sci, 1995)
Active and inactive are the calls of the source. The calls are words filed in the database; no cut-off is given here.

Experiments:
[1] = Displacement of [3H]alpha-BGT from nAChR in Apis mellifera (honeybee) head homogenates; type: tissue-based
[2] = Displacement of [3H]PCP from nAChR in Apis mellifera (honeybee0 head homogenates; type: tissue-based
Apis mellifera = assay: Displacement of [3H]PCP from nAChR in Apis mellifera (honeybee) head homogenates at 1000 uM; type: tissue-based
Musca domestica [3] = assay: Insecticidal activity against 3 to 5 day old female Musca domestica (house fly) assessed as compound level causing insect mortality per female applied through intrathoracic injection measured after 24 hr; type: functional
Musca domestica [4] = assay: Insecticidal activity against 3 to 5 day old female Musca domestica (house fly) assessed as induction of convulsions and paralysis applied through intrathoracic injection measured after 24 hr; type: functional, organism-based
Musca domestica [5] = assay: Insecticidal activity against 3 to 5 day old female Musca domestica (house fly) assessed as induction of anesthetic effect applied topically on notum measured after 24 hr; type: functional, organism-based
Musca domestica [6] = assay: Insecticidal activity against 3 to 5 day old female Musca domestica (house fly) assessed as compound level causing insect mortality per female applied topically on notum measured after 24 hr; type: functional
Musca domestica [7] = assay: Insecticidal activity against 3 to 5 day old female Musca domestica (house fly) assessed as induction of leg tremors at >2 ug/female fly applied topically on notum measured after 24 hr; type: functional, organism-based

SMILES | IC50 [1] [µM] | IC50 [2] [µM] | further results
O=[N+]([O-])/C=C1\NCCN1Cc1ccc(Cl)nc1 | 0.026 | 953 | –
COc1cc2c3cc1Oc1cc(ccc1O)C[C@@H]1c4c(cc(OC)c(O)c4Oc4ccc(cc4)C[C@@H]3N(C)CC2)CC[N+]1(C)C | 3.35 | 0.636 | –
CSC(C)N1CCN/C1=C\[N+](=O)[O-] (stereo unspecified) | 249 | 336 | –
O=[N+]([O-])C=C1NCCCS1 | 1360 | 231 | –
C/C(=N\C#N)N(C)Cc1ccc(Cl)nc1 [ACETAMIPRID] | 8.83 | 277 | –
C[N+](C)(C)CCOC(N)=O [CARBACHOL] | 90.1 | > 1000 | inhibition (Apis mellifera): 8.1%
CN(C)CCCN1c2ccccc2Sc2ccc(Cl)cc21 [CHLORPROMAZINE] | 151 | 5.8 | –
CCC[C@H]1CCCCN1 [CONIINE] | 166 | 5.56 | –
O=c1cccc2n1C[C@@H]1CNC[C@H]2C1 [CYTISINICLINE] | 0.267 | > 1000 | inhibition (Apis mellifera): 12.6%
C[N+]1(C)CCN(c2ccccc2)CC1 [DIMETHYLPHENYLPIPERAZINIUM IODIDE] | 7.35 | 385 | –
c1cncc(C2CCCCN2)c1 (stereo not drawn) [DL-ANABASINE] | 1.98 | 4.99 | –
O=[N+]([O-])/N=C1\NCCN1Cc1ccc(Cl)nc1 [IMIDACLOPRID] | 1.95 | 386 | LD50 (Musca domestica [3]): 0.553 µg; Activity (Musca domestica [4]): Active
CNC1(c2ccccc2Cl)CCCCC1=O (stereo unspecified) [KETAMINE] | 237 | 83.2 | –
CN1[C@@H](CC(=O)c2ccccc2)CCC[C@H]1C[C@H](O)c1ccccc1 [LOBELINE] | 4.6 | 158 | –
CNC1(C)C2CCC(C2)C1(C)C (stereo unspecified) [MECAMYLAMINE] | 346 | 8.98 | –
CN(C)C1CSSC1 [NEREISTOXIN] | 228 | 30.7 | Activity (Musca domestica [5]): Active; LD50 (Musca domestica [6]): 0.49 µg; Activity (Musca domestica [7]): Active
CN1CCC[C@H]1c1cccnc1 [NICOTINE] | 1.55 | 1.14 | LD50 (Musca domestica [6]): 14.8 µg
CCN(Cc1ccc(Cl)nc1)/C(=C/[N+](=O)[O-])NC [NITENPYRAM] | 61.3 | 27.6 | –
c1ccc(C2(N3CCCCC3)CCCCC2)cc1 [PHENCYCLIDINE] | 2.55 | 0.029 | Activity (Musca domestica [5]): Active; LD50 (Musca domestica [6]): 18.4 µg
CN1CCC[C@@H]1c1cccnc1 [R-NICOTINE] | 22.1 | 35 | –
c1csc(C2(N3CCCCC3)CCCCC2)c1 [TENOCYCLIDINE] | 1.38 | 0.082 | Activity (Musca domestica [5]): Active; LD50 (Musca domestica [6]): 25 µg
O=C1N(Cc2ccccc2)C2C[S+]3CCCC3C2N1Cc1ccccc1 (stereo unspecified) [TRIMETHAPHAN CAMSYLATE] | 0.798 | 440 | –
